How the values were obtained:
[1] = test system: pBMC from patients with CLL; assay: Cytotoxicity of several antineoplastic agents on pBMC (LC90), fixed volume flow cytometry; assay type: cell-based, human; conditions: in µg/mL
Excerpt: The necessary peripheral blood (PB) samples from adult patients diagnosed with chronic lymphatic leukaemia (CLL) were collected into heparin during routine diagnosis prior to administration of chemotherapy.

[2] = test system: Peripheral blood mononuclear cells (pBMC) from a patient with chronic lymphatic leukaemia; assay: Cytotoxicity of fludarabine phosphate on mononuclear cells, flow cytometry with fixed volume acquisition (PI exclusion); assay type: cell-based, human; conditions: 96 h; for relative cell survival: 100% = without fludarabine phosphate
Experimental: The peripheral blood mononuclear cells (pBMC) used in the examples were isolated from peripheral blood samples as described before (Staib, P. et al., Br. J. Haematol., 128(6):783-91 (2005)). The necessary peripheral blood (PB) samples from adult patients diagnosed with chronic lymphatic leukaemia (CLL) were collected into heparin during routine diagnosis prior to administration of chemotherapy.
Plate precoating with different amounts of fludarabine phosphate: 50 μl/well of an aqueous fludarabine phosphate solution were given in a 96-well microtiter plate (Greiner BioOne, Frickenhausen, Germany). Four different fludarabine phosphate concentrations (25; 8.33; 2.78; 0.93 μg/ml) were used. The control wells were kept empty. The plates were placed into an exsiccator and dried under vacuum for 8 h.
Peripheral blood mononuclear cells (pBMC) from a patient with chronic lymphatic leukaemia were isolated from the PB samples as described before (Staib, P. et al., Br. J. Haematol., 128(6):783-91 (2005)), resuspended in RPMI 1640 medium (Biochrom, Berlin, Germany) containing 20 vol. % fetal calf serum (FCS; Biochrom, Berlin, Germany) and added into the precoated 96-well plate with a final cell concentration of 10,000 cells/well and a volume of 100 μl. The plates were then agitated for 15 min in order to solubilize the dried fludarabine phosphate. Subsequently, the plates were incubated for 96 h (37° C., 5% CO2, humidified atmosphere). Thereafter, 50 μl of an 11 μM propidium iodide (PI)-solution in 0.9% aqueous NaCl solution (NaCl 0.9%) (Invitrogen, Leiden, Netherlands) were added and incubated for 15 min at room temperature. PI is a standard flow cytometric viability probe and is used to distinguish viable from nonviable cells. Viable cells with intact membranes exclude PI, whereas the membranes of dead and damaged cells are permeable to PI. PI only stains cells with compromised cell membrane, whilst live cells which have intact membranes are not stained by PI.
The plates were then analyzed using a FACSArray (BD Biosciences, San Jose, Calif., USA) flow cytometer. The following instrument settings were used:
2.0 μl/s sample flow rate
20 μl sample volume (n. b.: this is no absolute amount, but the set value of the instrument. Thus, the actual volume aspirated and analyzed by the instrument may be higher or lower than 20 μl: however, this actual volume is invariant from sample to sample during the analysis.)
500,000 maximum events (i.e. the number of maximum events exceeds the actual cell number in the sample considerably)
An identical fixed volume (preset sample volume on instrument: 20 μl) was aspirated from each sample and the absolute amount of living cells was counted. Living cells were defined as events with cellular light scatter characteristics and being negative for PI.
After switch-on and before analyzing a new kind of sample the flow cytometer must be re-calibrated. […] In addition cut-off values can be defined. Signals below this cut-off will be excluded from data acquisition. All cells with signal intensities above the cut-off are counted. The rectangle shown in FIG. 1 defines an area of signal intensities (FSC signal and PI signal) that is suitable for counting viable cells. All cells within this rectangle are counted.

[3] = 12.50 μg/ml final concentration

`Nc1nc(F)nc2c1ncn2[C@@H]1O[C@H](COP(=O)(O)O)[C@@H](O)[C@@H]1O` [Fludarabine phosphate, 2-Fluoro-9-(5-O-phosphono-β-D-arabinofuranosyl)-9H-purin-6-amine] showed an LC90 ([1]; pBMC of CLL patient #1, ex vivo) of 69.69, an LC90 ([1]; pBMC of CLL patient #2, ex vivo) of 11.74 and an LC90 ([1]; pBMC of CLL patient #3, ex vivo) of 0.09. It also gave an LC90 ([1]; pBMC of CLL patient #4, ex vivo) of 26.00, an LC90 ([1]; pBMC of CLL patient #5, ex vivo) of 0.46 and an LC90 ([1]; pBMC of CLL patient #6, ex vivo) of 18.17. The LC90 ([1]; pBMC of CLL patient #7, ex vivo) was 13.25, the LC90 ([1]; pBMC of CLL patient #8, ex vivo) was 15.02 and the LC90 ([1]; pBMC of CLL patient #9, ex vivo) was 0.94. The LC90 ([1]; pBMC of CLL patient #10, ex vivo) was 0.01, the LC90 ([1]; pBMC of CLL patient #11, ex vivo) was 2.15 and the LC90 ([1]; pBMC of CLL patient #12, ex vivo) was 0.33. The LC90 ([1]; pBMC of CLL patient #13, ex vivo) was 0.82, the LC90 ([1]; pBMC of CLL patient #14, ex vivo) was 0.86 and the LC90 ([1]; pBMC of CLL patient #15, ex vivo) was 0.58. It also gave an LC90 ([1]; pBMC of CLL patient #16, ex vivo) of 0.22, an LC90 ([1]; pBMC of CLL patient #17, ex vivo) of 0.55 and an LC90 ([1]; pBMC of CLL patient #18, ex vivo) of 0.55. It also gave an LC90 ([1]; pBMC of CLL patient #19, ex vivo) of 0.50, an LC90 ([1]; pBMC of CLL patient #20, ex vivo) of 0.00 and an LC90 ([1]; pBMC of CLL patient #21, ex vivo) of 0.11. For the same compound, the LC90 ([1]; pBMC of CLL patient #22, ex vivo) was 81.92, the LC90 ([1]; pBMC of CLL patient #23, ex vivo) was 0.01 and the LC90 ([1]; pBMC of CLL patient #24, ex vivo) was 23.76. For the same compound, the LC90 ([1]; pBMC of CLL patient #25, ex vivo) was 35.21, the “Total living cells counted in the fixed volume” value (from here on “Total living cells counted”) ([2]; 0.46 μg/ml final concentration) was 1,725 and the relative cell survival ([2]; 0.46 μg/ml final concentration) was 41%. For the same compound, the “Total living cells counted” value ([2]; 1.39 μg/ml final concentration) was 758, the relative cell survival ([2]; 1.39 μg/ml final concentration) was 18% and the “Total living cells counted” value ([2]; 4.17 μg/ml final concentration) was 347. For the same compound, the relative cell survival ([2]; 4.17 μg/ml final concentration) was 8%, the “Total living cells counted” value [2, 3] was 186 and the relative cell survival [2, 3] was 4%. The relative cell survival ([2]; 12.50 μg/ml final concentration, listed as fludarabine phosphate) was 4%.
